{"source": "patent US6933261B2", "about": "“2,4,5-Trisubstituted phenylketoenols” (Bayer Aktiengesellschaft, priority 1995, dated 2005)", "type_in_all_cases": "in vivo", "key": {"[1]": {"tested_on": "rice green leafhopper (Nephotettix cincticeps)", "test": "Nephotettix test", "details": "after 6 days, active compound concentration 0.1%, dipped rice seedlings", "description": "Nephotettix Test • Solvent: 7 parts by weight of dimethylformamide • Emulsifier: 1 part by weight of alkylaryl polyglycol ether To produce a suitable preparation of active compound, 1 part by weight of active compound is mixed with the stated amount of solvent and the stated amount of emulsifier, and the concentrate is diluted with water to the desired concentration. Rice seedlings (Oryza sativa) are treated by being dipped into the preparation of active compound of the desired concentration and are infested with caterpillars of the rice green leafhopper (Nephotettix cincticeps) while the seedlings are still moist. After the specified periods of time, the destruction in % is determined. 100% means that all the caterpillars have been killed; 0% means that none of the caterpillars have been killed."}, "[2]": {"tested_on": "peach aphid (Myzus persicae)", "test": "Myzus test", "details": "after 6 days, active compound concentration 0.1%, dipped cabbage leaves", "description": "(§1) Myzus Test • Solvent: 7 parts by weight of dimethylformamide • Emulsifier: 1 part by weight of alkylaryl polyglycol ether To produce a suitable preparation of active compound, 1 part by weight of active compound is mixed with the stated amount of solvent and the stated amount of emulsifier, and the concentrate is diluted with water to the desired concentration. Cabbage leaves (Brassica oleracea) which are heavily infested by the peach aphid (Myzus persicae) are treated by being dipped into the preparation of the active compound of the desired concentration. After the specified periods of time, the destruction in % is determined. 100% means that all the caterpillars have been killed; 0% means that none of the caterpillars have been killed."}, "Alopecurus myosuroids": {"tested_on": "Alopecurus myosuroids", "test": "Pre-emergence test", "details": "500 g/ha, rated after three weeks vs untreated control", "description": "(§2) • Solvent: 5 parts by weight of acetone • Emulsifier: 1 part by weight of alkylaryl polyglycol ether\n(§3) To produce a suitable preparation of active compound, 1 part by weight of active compound is mixed with the stated amount of solvent, the stated amount of emulsifier is added and the concentrate is diluted with water to the desired concentration.\n(§4) Seeds of the test plants are sown in normal soil and, after 24 hours, watered with the preparation of the active compound. It is expedient to keep constant the amount of water per unit area. The concentration of the active compound in the preparation is of no importance, only the amount of active compound applied per unit area being decisive.\n(§5) After three weeks, the degree of damage to the plants is rated in % damage in comparison to the development of the untreated control.\n(§6) The figures denote: • 0%=no action (like untreated control) • 100%=total destruction"}, "Avena fatua": {"tested_on": "Avena fatua", "test": "Pre-emergence test", "details": "500 g/ha, rated after three weeks vs untreated control", "description": "as §2, §3, §4, §5, §6"}, "Setaria viridis": {"tested_on": "Setaria viridis", "test": "Pre-emergence test", "details": "500 g/ha, rated after three weeks vs untreated control", "description": "as §2, §3, §4, §5, §6"}, "[3]": {"tested_on": "caterpillars of the diamond-back moth (Plutella maculipennis)", "test": "Plutella test", "details": "after 7 days, active compound concentration 0.1%, dipped cabbage leaves", "description": "as §1, with “Plutella Test •” for “Myzus Test •”, “(Brassica oleracea) are treated” for “(Brassica oleracea) which are heavily infested by the peach aphid (Myzus persicae) are treated”, “preparation of active compound” for “preparation of the active compound”, “the desired concentration and are infested with caterpillars of the diamond-back moth (Plutella maculipennis) while the leaves are still moist. After the” for “the desired concentration. After the”"}, "[4]": {"tested_on": "caterpillars of the owlet moth (Spodoptera frugiperda)", "test": "Spodoptera test", "details": "after 7 days, active compound concentration 0.1%, dipped cabbage leaves", "description": "as §1, with “Spodoptera Test •” for “Myzus Test •”, “(Brassica oleracea) are treated” for “(Brassica oleracea) which are heavily infested by the peach aphid (Myzus persicae) are treated”, “preparation of active compound” for “preparation of the active compound”, “the desired concentration and are infested with caterpillars of the owlet moth (Spodoptera frugiperda) while the leaves are still moist. After the” for “the desired concentration. After the”"}, "Beta vulgaris": {"tested_on": "Beta vulgaris", "test": "Pre-emergence test (crop tolerance)", "details": "500 g/ha", "description": "as §2, §3, §4, §5, §6"}, "[5]": {"tested_on": "Boophilus microplus resistant/SP-resistant Parkhurst strain, adult satiated females", "test": "Test with Boophilus microplus resistant/SP-resistant Parkhurst strain", "details": "20 μg per animal, injected into the abdomen", "description": "Test with Boophilus microplus Resistant/SP-resistant Parkhurst Strain\n• Test animals: Adult satiated females • Solvent: Dimethyl sulphoxide\n20 mg of active compound are dissolved in 1 ml of dimethyl sulphoxide, and lower concentrations are prepared by dilution in the same solvent.\nThe test is carried out as a 5-fold determination. 1 μl of the solutions is injected into the abdomen and the animals are transferred to dishes and kept in a climatically controlled room. The action is determined via the inhibition of oviposition. 100% means that no tick has laid."}, "[6]": {"tested_on": "All larval stages of Lucilia cuprina (OP-resistant)", "test": "Test with fly larvae/development-inhibiting action", "details": "active compound concentration 1000 ppm, read-out: action (larvicidal / development-inhibiting)", "description": "Test with Fly Larvae/Development-Inhibiting Action\n• Test animals: All larval stages of Lucilia cuprina (OP-resistant) [pupae and adults (without contact with the active compound)] • Solvent: 35 parts by weight of ethylene glycol monomethyl ether 35 parts by weight of nonylphenol polyglycol ether\nTo produce a suitable formulation, 3 parts by weight of active compound are mixed with seven parts of the abovementioned solvent/emulsifier mixture and the emulsion concentrate thus obtained is diluted with water to the particular desired concentration.\n30 to 50 larvae per concentration are introduced onto horse-meat (1 cm^3), in glass tubes, onto which 500 μl of the dilution to be tested are pipetted. The glass tubes are placed in plastic beakers, the base of which is covered with beach sand, and are stored in a climatically controlled room (26° C.±1.5° C., 70% relative humidity±10%). The action is checked after 24 hours and 48 hours (larvicidal action). After emergence of the larvae (about 72 hours), the glass tubes are removed and perforated plastic lids are placed on the beakers. After 1½ times the development period (hatching of the control flies), the flies which have hatched and the pupae/pupae cases are counted. […]"}, "[7]": {"tested_on": "mustard beetle larvae (Phaedon cochleariae)", "test": "Phaedon larvae test", "details": "after 7 days, active concentration 0.1%, dipped cabbage leaves", "description": "Phaedon Larvae Test • Solvent: 7 parts by weight of dimethylformamide • Emulsifier: 1 part by weight of alkylaryl polyglycol ether To produce a suitable preparation of active compound, 1 part by weight of active compound is mixed with the stated amount of solvent and the stated amount of emulsifier, and the concentrate is diluted with water to the desired concentration. Cabbage leaves (Brassica oleracea) are treated by being dipped into the preparation of the active compound of the desired concentration and are infested with mustard beetle larvae (Phaedon cochleariae), as long as the leaves are still moist. After the specified periods of time, the destruction in % is determined. 100% means that all the beetle larvae have been killed; 0% means that none of the beetle larvae have been killed."}}}
{"smiles": "COC1CCC2(CC1)OC(=O)C(c1cc(C)c(C)cc1C)=C2O", "note": "(centres unmarked) [Example I-2-a-3]", "values": [{"measurement": "destruction", "setting": "[1]", "result": 100, "unit": "%"}]}
{"smiles": "COC1CCC2(CC1)NC(=O)C(c1cc(C)c(C)cc1C)=C2OC(=O)OCC(C)C", "note": "(single isomer, unassigned) [Example I-1-c-2]", "values": [{"measurement": "destruction", "setting": "[2]", "result": 100, "unit": "%"}, {"measurement": "destruction", "setting": "[1]", "result": 100, "unit": "%"}]}
{"smiles": "Cc1cc(C)c(-c2c(O)c(C)c(-c3ccc(F)cc3)oc2=O)cc1C", "note": "[Example I-4-a-3]", "values": [{"measurement": "damage", "setting": "Alopecurus myosuroids", "result": 90, "unit": "%"}, {"measurement": "damage", "setting": "Avena fatua", "result": 96, "unit": "%"}, {"measurement": "damage", "setting": "Setaria viridis", "result": 95, "unit": "%"}, {"measurement": "destruction", "setting": "[3]", "result": 100, "unit": "%"}, {"measurement": "destruction", "setting": "[4]", "result": 100, "unit": "%"}, {"measurement": "tolerance by crop plant", "setting": "Beta vulgaris", "result": "good tolerance"}, {"measurement": "destruction", "setting": "[1]", "result": 100, "unit": "%"}]}
{"smiles": "CCOC(=O)OC1=C(c2cc(C)c(C)cc2C)C(=O)NC12CCC(C)CC2", "note": "(centres unmarked) [Example I-1-c-1]", "values": [{"measurement": "destruction", "setting": "[3]", "result": 100, "unit": "%"}, {"measurement": "destruction", "setting": "[1]", "result": 100, "unit": "%"}]}
{"smiles": "Cc1cc(C)c(-c2c(O)c3c(oc2=O)C(C)(C)OC3(C)C)cc1C", "note": "[Example I-4-a-1]", "values": [{"measurement": "destruction", "setting": "[3]", "result": 100, "unit": "%"}, {"measurement": "destruction", "setting": "[4]", "result": 100, "unit": "%"}, {"measurement": "action (inhibition of oviposition)", "setting": "[5]", "result": 100, "unit": "%"}, {"measurement": "inhibition at 1000 ppm", "setting": "[6]", "result": 100, "unit": "%"}]}
{"smiles": "Cc1cc(C)c(C2=C(O)C3(CCCCC3)OC2=O)cc1C", "note": "[Example I-2-a-1]", "values": [{"measurement": "destruction", "setting": "[2]", "result": 100, "unit": "%"}]}
{"smiles": "COC1CCC2(CC1)NC(=O)C(c1cc(C)c(C)cc1C)=C2OC(=O)OCC(C)C", "note": "(single isomer, unassigned) [Example I-1-c-3]", "values": [{"measurement": "destruction", "setting": "[1]", "result": 100, "unit": "%"}]}
{"smiles": "COC1CCC2(CC1)NC(=O)C(c1cc(C)c(C)cc1C)=C2OC(=O)C(C)C", "note": "(single isomer, unassigned) [Example I-1-b-3]", "values": [{"measurement": "destruction", "setting": "[2]", "result": 100, "unit": "%"}, {"measurement": "destruction", "setting": "[1]", "result": 100, "unit": "%"}]}
{"smiles": "Cc1cc(C)c(C2=C(O)C3(CCC(C)CC3)OC2=O)cc1C", "note": "(centres unmarked) [Example I-2-a-2]", "values": [{"measurement": "destruction", "setting": "[1]", "result": 100, "unit": "%"}]}
{"smiles": "CC(=O)Oc1c2c(oc(=O)c1-c1cc(C)c(C)cc1C)C(C)(C)OC2(C)C", "note": "[Example I-4-b-1]", "values": [{"measurement": "destruction", "setting": "[3]", "result": 100, "unit": "%"}, {"measurement": "destruction", "setting": "[4]", "result": 100, "unit": "%"}, {"measurement": "destruction", "setting": "[7]", "result": 100, "unit": "%"}, {"measurement": "action (inhibition of oviposition)", "setting": "[5]", "result": 100, "unit": "%"}]}
{"smiles": "Cc1cc(C)c(C2=C(O)C3(CCC(C)CC3)NC2=O)cc1C", "note": "(centres unmarked) [Example I-1-a-1]", "values": [{"measurement": "destruction", "setting": "[3]", "result": 100, "unit": "%"}, {"measurement": "destruction", "setting": "[4]", "result": 100, "unit": "%"}, {"measurement": "destruction", "setting": "[1]", "result": 100, "unit": "%"}]}
{"smiles": "Cc1cc(C)c(C2=C(OC(=O)C(C)C)C3(CCC(C)CC3)NC2=O)cc1C", "note": "(single isomer, unassigned) [Example I-1-b-2]", "values": [{"measurement": "destruction", "setting": "[3]", "result": 100, "unit": "%"}, {"measurement": "destruction", "setting": "[4]", "result": 100, "unit": "%"}, {"measurement": "destruction", "setting": "[2]", "result": 100, "unit": "%"}, {"measurement": "destruction", "setting": "[1]", "result": 100, "unit": "%"}]}
{"smiles": "Cc1cc(C)c(-c2c(O)c(C)c(-c3ccccn3)oc2=O)cc1C", "note": "[Example I-4-a-4]", "values": [{"measurement": "destruction", "setting": "[3]", "result": 100, "unit": "%"}, {"measurement": "destruction", "setting": "[4]", "result": 100, "unit": "%"}, {"measurement": "destruction", "setting": "[7]", "result": 100, "unit": "%"}, {"measurement": "destruction", "setting": "[2]", "result": 100, "unit": "%"}, {"measurement": "destruction", "setting": "[1]", "result": 100, "unit": "%"}]}
{"smiles": "CC(=O)OC1=C(c2cc(C)c(C)cc2C)C(=O)NC12CCC(C)CC2", "note": "(centres unmarked) [Example I-1-b-1]", "values": [{"measurement": "destruction", "setting": "[1]", "result": 100, "unit": "%"}]}
{"smiles": "COC1CCC2(CC1)OC(=O)C(c1cc(C)c(C)cc1C)=C2OC(=O)C(C)(C)C", "note": "(centres unmarked) [Example I-2-b-5]", "values": [{"measurement": "destruction", "setting": "[1]", "result": 100, "unit": "%"}]}
{"smiles": "COC1CCC2(CC1)OC(=O)C(c1cc(C)c(C)cc1C)=C2OC(=O)C(C)C", "note": "(centres unmarked) [Example I-2-b-4]", "values": [{"measurement": "destruction", "setting": "[2]", "result": 100, "unit": "%"}, {"measurement": "destruction", "setting": "[1]", "result": 100, "unit": "%"}]}
